{
  "source": "patent US20070059260A1",
  "about": "“Benzyl-1,3-thiazolidine-2,4-dione compounds for promoting and/or inducing and/or stimulating the pigmentation of keratin materials and/or for limiting their depigmentation and/or whitening” (L'OREAL, priority 2005, published 2007)",
  "key": {"[1]": {"target": "T1, Type-1 15-PGDH (Homo sapiens, UniProt P15428)", "T1 construct": "made in house", "T1 sequence (P15428 1-266)": "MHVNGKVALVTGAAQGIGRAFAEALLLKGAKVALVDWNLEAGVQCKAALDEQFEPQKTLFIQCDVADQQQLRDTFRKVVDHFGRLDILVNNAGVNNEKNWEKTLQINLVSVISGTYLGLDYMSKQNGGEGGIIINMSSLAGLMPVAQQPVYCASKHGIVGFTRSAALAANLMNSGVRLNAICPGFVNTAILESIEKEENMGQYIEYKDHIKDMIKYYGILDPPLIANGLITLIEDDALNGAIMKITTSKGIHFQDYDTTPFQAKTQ", "experiment": "Test on type-1 15-PGDH (spectrophotometric, NAD/PGE2, 340 nm)", "type": "biochemical", "conditions": "concentration reducing enzymatic activity of 15-PGDH by 50%; 37° C., pH 7.4 Tris buffer, 1.5 mM β-NAD, 50 μM Prostaglandin E2; read-out: IC50dh or % inhibition at 100 μM", "protocol": "The enzyme 15-PGDH is obtained as described in FR 02/05067 filed in the name of L'Oreal, as a suspension in a medium adjusted to a concentration of 0.3 mg/mL and then blocked at −80° C. For the purposes of the test, this suspension is thawed and stored in ice.\nIn parallel, a 100 mM, pH 7.4 Tris buffer containing 0.1 mM of dithiothreitol (D5545, Sigma-Aldrich, L'isle D'Abeau Chesne, BP 701, 38297, Saint Quentin Fallavier), 1.5 mM of β-NAD (N6522, Sigma-Aldrich, L'isle D'Abeau Chesne, BP 701, 38297, Saint Quentin Fallavier), and 50 μM of Prostaglandin E2 (P4172, Sigma-Aldrich, L'isle D'Abeau Chesne, BP 701, 38297, Saint Quentin Fallavier) is prepared.\n0.965 ml of this buffer (brought to 37° C. beforehand) is introduced into the cuvette of a spectrophotometer (Perkin-Elmer, Lambda 2) thermostatically maintained at 37° C., the measuring wavelength of which is set at 340 nm. 0.035 mL of enzymatic suspension at 37° C. is introduced into the cuvette concomitantly with the recording (corresponding to an increase in the optical density at 340 nm). The maximum reaction rate is recorded.\nThe test values (containing the compounds of formula (I)) are compared with the control value (without compound of formula (I)); the results indicated represent either the percentage inhibition of the enzymatic activity of 15-PGDH for a given concentration of compound of formula (I), or the concentration at which the compound of formula (I) reduces the enzymatic activity of 15-PGDH by 50%, namely IC50dh."}},
  "data": [
    {"molecule": "O=C1NC(=O)C(Cc2ccccc2Oc2ccc(Cl)cc2Cl)S1", "note": "(centres unmarked) [Compound 2]", "values": [
      {"measurement": "IC50", "setting": "[1]", "result": 1210, "unit": "nM"}
    ]},
    {"molecule": "O=C1NC(=O)C(Cc2ccccc2Oc2ccccc2)S1", "note": "(centres unmarked) [Compound 3]", "values": [
      {"measurement": "IC50", "setting": "[1]", "result": 2750, "unit": "nM"}
    ]},
    {"molecule": "CC(C)(C)c1ccc(Oc2ccccc2CC2SC(=O)NC2=O)cc1", "note": "(centres unmarked) [Compound 4, 5-[2-(4-tert-Butylphenoxy)benzyl]-1,3-thiazolidine-2,4-dione]", "values": [
      {"measurement": "IC50", "setting": "[1]", "result": 400, "unit": "nM"}
    ]},
    {"molecule": "CC(C)(C)c1ccc(Oc2cccc(CC3SC(=O)NC3=O)c2)cc1", "note": "(centres unmarked) [Compound 5]", "values": [
      {"measurement": "IC50", "setting": "[1]", "result": 580, "unit": "nM"}
    ]},
    {"molecule": "O=C1NC(=O)C(Cc2ccccc2Oc2ccccc2)S1", "note": "(centres unmarked) [Example 1, 5-(2-phenoxybenzyl)-1,3-thiazolidine-2,4-dione]", "values": [
      {"measurement": "melting point", "result": "84 to 85", "unit": "°C"}
    ]}
  ]
}
